Broadly, the IC50 is the point on the concentration scale where inhibition reaches its midpoint.

This is an account of results in ChEMBL document CHEMBL2390939, “Synthesis and in vitro cytotoxicity of andrographolide-19-oic acid analogues as anti-cancer agents” (Bioorg Med Chem Lett, 2013).

The subject of assay [1] is HCT-116. Kind of assay: Cytotoxicity against human HCT116 cells assessed as growth inhibition after 72 hrs by MTS assay. It counts as functional, cell-based. To be noted: HCT-116, 72 h. In general terms: Tetrazolium dyes change colour on reduction, which living cells bring about.
A further assay deals with MCF7. The assay can be described thus: Cytotoxicity against human MCF7 cells assessed as growth inhibition after 72 hrs by MTS assay. It counts as functional, cell-based. To be noted: MCF7, 72 h.
Assay [2] concerns HCT-116. Kind of assay: Ratio of cis-platin IC50 to compound IC50 for growth inhibition of human HCT116 cells. It counts as functional.

For `C=C1CC[C@H]2[C@@](C)(CC[C@@H](OC(C)=O)[C@@]2(C)C(=O)OC)[C@@H]1C/C=C1/C(=O)OC[C@H]1OC(=O)/C=C/c1ccc(OC)cc1`, the IC50 in the assay with HCT-116 [1] stood at 2780 nM; in the assay with MCF7, 14.5 µM.

With `C=C1CC[C@H]2[C@@](C)(CC[C@@H](OC(C)=O)[C@@]2(C)C(=O)OCc2ccccc2)[C@@H]1C/C=C1/C(=O)OC[C@H]1OC(=O)/C=C/c1ccc(OC)cc1`, the figures for the IC50 with HCT-116 [1] and in the assay with MCF7 were 2830 nM and 6.13 µM, respectively.

In the case of `C=C1CC[C@H]2[C@@](C)(CC[C@@H](OC(C)=O)[C@@]2(C)C(=O)OCc2ccccc2)[C@@H]1C/C=C1/C(=O)OC[C@H]1OC(C)=O`, the IC50 with HCT-116 [1] came out at 1070 nM; in the assay with MCF7, 6.28 µM.

As for `C=C1CC[C@@H]2[C@](C)(CO)[C@H](O)CC[C@@]2(C)[C@@H]1C/C=C1/C(=O)OC[C@H]1O` [ANDROGRAPHOLIDE], the IC50 in the assay on HCT-116 [1] is 23900 nM; in the assay with MCF7, over 66 µM.

As to `C=C1CC[C@H]2[C@@](C)(CC[C@@H](OC(C)=O)[C@@]2(C)C(=O)O)[C@@H]1C/C=C1/C(=O)OC[C@H]1OC(C)=O`, the IC50 with HCT-116 [1] was 2190 nM; in the assay with MCF7, over 4.1 µM.

Consider `C=C1CC[C@H]2[C@@](C)(CC[C@@H](OC(C)=O)[C@@]2(C)C(=O)O)[C@@H]1C/C=C1/C(=O)OC[C@H]1OC(=O)/C=C/c1ccc(OC)cc1`, for which the IC50 in the assay on HCT-116 [1] stood at 9730 nM; in the assay on MCF7 it was 33.9 µM.

Consider `C=C1CC[C@H]2[C@@](C)(CC[C@@H](OC(C)=O)[C@@]2(C)C(=O)O)[C@@H]1C/C=C1/C(=O)OC[C@H]1OC(=O)c1ccccc1`, for which the IC50 with HCT-116 [1] is 17800 nM; in the assay with MCF7 it was 38.2 µM.

`C=C1CC[C@H]2[C@@](C)(CC[C@@H](OC(C)=O)[C@@]2(C)C(=O)OC)[C@@H]1C/C=C1/C(=O)OC[C@H]1OC(C)=O`: the IC50 was 2020 nM in the assay on HCT-116 [1] and 6.4 µM in the assay with MCF7.

As for `C=C1CC[C@H]2[C@@](C)(CC[C@@H](OC(C)=O)[C@@]2(C)C(=O)OCc2ccccc2)[C@@H]1C/C=C1/C(=O)OC[C@H]1OC(=O)c1ccccc1`, in the assay with HCT-116 [2], the “Ratio IC50” value was 11. Moreover, the IC50 in the assay on HCT-116 [1] was 1180 nM; in the assay on MCF7, 8.37 µM.

Take `C=C1CC[C@H]2[C@@](C)(CC[C@@H](O)[C@@]2(C)C(=O)O)[C@@H]1C/C=C1/C(=O)OC[C@H]1OC(=O)/C=C/c1ccc(OC)cc1`: the IC50 with HCT-116 [1] worked out at 1920 nM; in the assay on MCF7, 8.86 µM.

For the compound `C=C1CC[C@H]2[C@@](C)(CC[C@@H](O)[C@@]2(C)C(=O)O)[C@@H]1C/C=C1/C(=O)OC[C@H]1OC(=O)c1ccccc1`, the IC50 in the assay on HCT-116 [1] was 13800 nM; in the assay on MCF7, over 40.2 µM.

Consider `C=C1CC[C@H]2[C@@](C)(CC[C@@H](O)[C@@]2(C)C(=O)O)[C@@H]1C/C=C1/C(=O)OC[C@H]1OC(C)=O`, for which the half-maximal inhibitory concentration (IC50) amounted to 25200 nM with HCT-116 [1] and 33.3 µM in the assay with MCF7.

For `C=C1CC[C@H]2[C@@](C)(CC[C@@H](OC(C)=O)[C@@]2(C)C(=O)OC)[C@@H]1C/C=C1/C(=O)OC[C@H]1OC(=O)c1ccccc1`, the IC50 with HCT-116 [1] amounted to 3010 nM; in the assay with MCF7 it was 10.6 µM.
